According to patent publication US20200261383A1, “PHARMACEUTICAL COMPOSITIONS” (KALVISTA PHARMACEUTICALS LIMITED, priority 2017, published 2020):
Blank lines part the entries; values can stand above or below the molecule they belong to.

Tests used:
[1] = Ocular pharmacokinetic study in monkey, intravitreal injection on Day 1, 29 and 57; type: in vivo, cynomolgus monkeys; settings: monkeys; IVT 5 μg/eye Day 1, 29, 57; calculated post third dose, sampling interval Day 57-99
[2] = solution for injection; cited from earlier work
diabetic rats = settings: cited from earlier work

- AUC0-last in Ocular Tissue, Aqueous Humor [1]: 1,410 ng · h/mL or ng · h/g
- AUC0-last in Ocular Tissue, Choroid-Tissue [1]: 32,200 ng · h/mL or ng · h/g
- AUC0-last in Ocular Tissue, Retina- Tissue [1]: 166,000 ng · h/mL or ng · h/g
- AUC0-last in Ocular Tissue, Vitreous Humor [1]: 1,110 ng · h/mL or ng · h/g
Molecule: CCOc1ccc(C[C@@H](NC(=O)c2ccccc2)C(=O)N[C@@H](Cc2ccccc2)C(=O)NCc2ccc(CN)cc2)cc1.Cl [Compound 1, N-[(R)-1-[(S)-1-(4-Aminomethyl-benzylcarbamoyl)-2-phenyl-ethylcarbamoyl]-2-(4-ethoxy-phenyl)-ethyl]-benzamide hydrochloride]

Molecule: Ecallantide
- Safety in medical use [2]: risk of anaphylactic reactions

Molecule: N=C(N)c1ccc(CNC(=O)c2cnn(Cc3ccccc3)c2)cc1 [ASP-440]
- Retinal blood flow abnormalities (diabetic rats): ameliorated
- Retinal vascular permeability (diabetic rats): ameliorated
